Reference: ChEMBL document CHEMBL4483862, “Open-source discovery of chemical leads for next-generation chemoprotective antimalarials” (2018)

Tested on: Plasmodium berghei
Assay: Luciferase/luciferin-expressing antifolate-resistant parasites were used to infect a culture of HepG2 cells that were pre-incubated with compounds. Infected hepatocytes emit light due to the luciferase reaction. Assay results are presented as the percent inhibition of light emission compared to control. […]
Assay type: functional
Conditions: sporozoite; for IC50: read-out: LUCIFERASE INFECTION ASSAY - IC50; for IC90: read-out: LUCIFERASE INFECTION ASSAY - IC90

Row | Structure (SMILES) | IC50 [µM] | IC90 [µM]
1 | CCN(CC)C(=O)c1sc2nc(-c3ccccn3)nc(O)c2c1C | > 10 | > 10
2 | C=CCn1c(C)cc(C2=NN=C(NC(C)(C)C)SC2)c1C | 0.366 | 0.38
3 | COc1cccc(C(=O)OCC(=O)c2c[nH]c3ccccc23)c1O | > 10 | > 10
4 | COc1cc(NC(=O)COC(=O)CNC(=O)C2CCCCC2)cc(OC)c1 | > 10 | > 10
5 | CCOc1cc(/C=C2\COc3ccccc3C2=O)ccc1OCC(=O)N(C)C | > 10 | > 10
6 | CCc1ccc(CN(C)CC(O)COc2cccc3ccccc23)cc1 (configuration not stated) | > 10 | > 10
7 | CCc1nc(Sc2nnnn2-c2ccccc2)c2c3c(sc2n1)CCCC3 | > 10 | > 10
8 | CCCn1nc(C(=O)N2CCCc3ccccc32)c2ccccc2c1=O | > 10 | > 10
9 | COc1cc2c(C#N)c(N3CCc4ccccc4C3)nc(N)c2c(N)n1 | > 10 | > 10
10 | O=c1cc(CN2CCCCCC2)nc2sccn12 | 1.12 | 1.39
11 | O=C(Nc1ccc(-c2nc3ccccc3[nH]2)cc1)C1CCCO1 (configuration not stated) | > 10 | > 10
12 | Cc1ccc(OCC(O)CN2CCc3ccccc3C2)c(C)c1 (configuration not stated) | > 9.49 | > 9.49
13 | COCC(C)n1c(C)cc(C(=O)COC(=O)c2cccn2C)c1C (configuration not stated) | 1.82 | 6.18
14 | CC(C)(c1ccc(O)cc1)c1ccc(Cl)cc1 | > 10 | > 10
15 | CC1CCCC(NC(=O)CSc2nnc(O)n2Cc2ccccc2)C1C (configuration not stated) | > 10 | > 10
16 | COc1ccc(NC(=O)c2ccc(O)nc2)cc1S(=O)(=O)N1CCOCC1 | > 10 | > 10
17 | O=C(C1CCCN(C2=NS(=O)(=O)c3ccccc32)C1)N1CCOCC1 (configuration not stated) | > 10 | > 10
18 | Cc1ccc(C)c(Sc2ccc(S(=O)(=O)NCCN(C)C)cc2)c1 | > 10 | > 10
19 | Cc1cc(C(=O)C(C)OC(=O)C2=COCCO2)c(C)n1-c1ccc(Cl)cc1 (configuration not stated) | 6.48 | > 10
20 | CC(=O)c1c(C)[nH]c(C(=O)Nc2ccc3ccccc3n2)c1C | 0.934 | 1.16
21 | CC(OC(=O)c1ccc2ncsc2c1)C(=O)N1CCCC1 (configuration not stated) | > 10 | > 10
22 | CC(C)(c1ccccc1)c1ccc(OCC(O)CN2CCC(C(N)=O)CC2)cc1 (configuration not stated) | > 10 | > 10
23 | CCOC(=O)NC(=O)COC(=O)CCc1ccc(OC)cc1 | > 10 | > 10

Row | Structure (SMILES) | IC50 [µM] | IC90 [µM]
24 | COc1cc(C(=O)OCc2c(C)cc(C(C)(C)C)cc2C)cc(OC)c1OC | > 10 | > 10
25 | Cc1ccc(Sc2ncccc2C(=O)Nc2nc3c(s2)CCCC3)cc1 | 3.38 | 3.95
26 | CCc1cccc(CC)c1NC(=O)COC(=O)c1[nH]c(C)c(C(C)=O)c1C | > 10 | > 10
27 | CC(C)c1ccccc1N(C(=O)C1CCC1)c1nc2ccccc2s1 | > 10 | > 10
28 | COc1cc(C(=O)NCCN(C(C)C)C(C)C)cc(OC)c1C | > 10 | > 10
29 | COc1ccccc1C(=O)N(c1ccc(F)cc1)c1nc2ccccc2s1 | > 10 | > 10
30 | Cc1cc(C(=O)CSc2nc(N)nc(N)n2)c(C)n1CCC1=CCCCC1 | > 10 | > 10
31 | CCn1c(-c2ccccc2)c(C(=O)COc2ccccc2OC)c2ccccc21 | > 10 | > 10
32 | COc1ccc(OC)c(NC(=O)c2cc(-c3ccccc3)nn2-c2ccccc2)c1 | > 10 | > 10
33 | O=C(NC1CCCc2ccccc21)c1cc(Cl)nc(Cl)c1 (configuration not stated) | > 10 | > 10
34 | Cc1cc(C(=O)COC(=O)C2=COCCO2)c(C)n1Cc1ccco1 | > 10 | > 10
35 | C=CCN1C(=O)C(O)(c2cnc(N)s2)c2ccccc21 (configuration not stated) | > 10 | > 10
36 | Cc1ccc(NC(=O)C(OC(=O)c2c(C)noc2C)c2ccccc2)cc1Cl (configuration not stated) | > 10 | > 10
37 | Cc1ccc(-n2c(C)nnc2SCCCc2nc(-c3ccccc3)no2)cc1 | > 10 | > 10
38 | Cc1cc(C(=O)OCC(=O)N(CCC#N)c2ccc(F)cc2)c2ccccc2n1 | > 10 | > 10
39 | C=CCN(C(=O)c1cc(C2CC2)nc2ccccc12)c1nc2c(s1)CCCC2 | > 10 | > 10
40 | CC(=O)c1c(C)[nH]c(C(=O)CN(C)Cc2ccc(C(C)(C)C)cc2)c1C | > 10 | > 10
41 | O=C1COc2ccc(-c3csc(Nc4ccccc4C(F)(F)F)n3)cc2N1 | 5.54 | > 10
42 | O=C(NCCN1CCN(c2ncnc3sc4c(c23)CCC4)CC1)c1ccco1 | > 10 | > 10
43 | Cc1ccc(-c2nc3nc(N)n(C)c(=O)c3[nH]c2=O)cc1 | > 10 | > 10
44 | CN(C)C(C(=O)c1ccccc1)C(c1ccc(F)cc1)c1ccc(F)cc1 (configuration not stated) | > 10 | > 10
45 | Cc1cc(C)c(-c2csc(NC(=O)Cc3ccccc3)n2)c(C)c1 | 2.81 | 3.56
46 | Cc1nnc(NC(=O)c2ccc3c(c2)SC2=NS(=O)(=O)CCN23)s1 | > 10 | > 10

Row | Structure (SMILES) | IC50 [µM] | IC90 [µM]
47 | CC(C)(C)C(=O)COC(=O)c1ccc(-c2ccc(O)cc2)cc1 | > 10 | > 10
48 | c1ccc(-c2ncc(CSc3ncnc4sccc34)s2)cc1 | > 10 | > 10
49 | O=C1N=C(NC2CCCCC2)S/C1=C\c1cccc(C(F)(F)F)c1 | > 10 | > 10
50 | CNc1nc(CSc2ccc(Cl)cc2)nc2sc3c(c12)CCC3 | > 10 | > 10
51 | Cc1nc(SCC(=O)c2cc(C)n(-c3ccccc3)c2C)c2ccsc2n1 | > 10 | > 10
52 | Cc1cc(C(C)(C)C)cc(C)c1CCN1C(=O)CSC1c1cccnc1 (configuration not stated) | > 10 | > 10
53 | Cc1cc(C)n2cc(CN(C)Cc3ccccc3)nc2n1 | > 10 | > 10
54 | Cc1ccc(NCC(=O)c2ccc(-n3nncc3-c3ccccc3)cc2)cc1 | > 10 | > 10
55 | COc1ccccc1-c1nc(CCl)cs1 | > 10 | > 10
56 | Cc1ccc(Oc2ccc(S(=O)(=O)NCCN(C)C)cc2)cc1 | > 10 | > 10
57 | CCN(C(=O)c1ccccc1Br)c1nc2c(C)cccc2s1 | > 10 | > 10
58 | Cc1cc(C(=O)CSc2nc3ccccc3s2)c(C)n1CC1CCCO1 (configuration not stated) | > 10 | > 10
59 | Cc1cc(C(=O)OCc2c(Cl)cccc2Cl)c(C)o1 | > 10 | > 10
60 | CCOC(=O)c1[nH]c2c(c1C)C(=O)/C(=C/c1ccc(Cl)cc1)CC2 | > 10 | > 10
61 | O=S(=O)(Oc1ccc2oc3ccccc3c2c1)c1ccccc1F | > 10 | > 10
62 | CCCN1CCN(c2c3ccc(Cl)cc3nc3ccc(OC)cc23)CC1 | > 10 | > 10
63 | O=C1Nc2ccccc2SC1c1c(-c2ccc(Cl)cc2)cc2ccccn12 (configuration not stated) | > 10 | > 10
64 | CC(C)CNC(=O)NC(=O)COC(=O)c1c2c(nc3ccccc13)CCCCC2 | 3.9 | 7.96
65 | O=C(CCN1c2ccccc2Sc2ccccc21)Nc1ccc2ccccc2c1 | > 10 | > 10
66 | CC(C)(C)c1ccc(/C=C2\CCc3c2nc2ccccc2c3C(=O)OCC#N)cc1 | > 10 | > 10
67 | O=C1c2ccccc2S(=O)(=O)N1c1ccccc1F | > 10 | > 10
68 | O=C(Nc1nc(-c2ccc3c(c2)CCCC3)cs1)c1cnccn1 | > 10 | > 10
69 | Cc1ccc2c(Cl)cc(Cl)c(OCC(=O)NC3CCCCC3C)c2n1 (configuration not stated) | > 10 | > 10

Row | Structure (SMILES) | IC50 [µM] | IC90 [µM]
70 | Cc1noc(C)c1COC(=O)CC(c1ccccc1)c1ccccc1 | > 10 | > 10
71 | c1ccc(-n2nnnc2Sc2ncnc3sc4c(c23)CCC4)cc1 | > 10 | > 10
72 | Cc1cc(C(=O)CSC(c2ccccc2)c2ccccc2)c(C)n1C | > 10 | > 10
73 | O=C(COc1ccccc1-c1ccccc1)NCC1CCCCC1 | > 10 | > 10
74 | CC1CCc2c(sc3ncnc(NCC(c4ccccc4)N(C)C)c23)C1 (configuration not stated) | > 10 | > 10
75 | Cn1cnnc1SCC(=O)NC(Cc1c[nH]c2ccccc12)C(=O)O (configuration not stated) | > 10 | > 10
76 | O=C(CN1CCN(Cc2nc3ccccc3s2)CC1)N1CCc2ccccc21 | > 10 | > 10
77 | O=C(CCc1nc2ccccc2s1)OCCOc1ccccc1F | > 10 | > 10
78 | CCOc1ccc(S(=O)(=O)Nc2ccccc2C(=O)Nc2nnc[nH]2)cc1 | > 10 | > 10
79 | CC(C)c1ccc(-c2nnc(NC(=O)c3cn4ccccc4n3)s2)cc1 | 9.54 | > 10
80 | CCOC(=O)c1sc(N)c(C#N)c1COC(=O)c1c(CC)noc1C | 0.244 | 0.249
81 | O=C(Nc1nc2ccccc2[nH]1)c1oc2ccccc2c1COc1ccccc1 | > 10 | > 10
82 | COC(=O)c1cc(-c2ccc(C)cc2)nc2onc(C(C)C)c12 | > 10 | > 10
83 | Oc1cc2c(cc1CN1CCN(Cc3ccc4c(c3)OCO4)CC1)CCC2 | > 10 | > 10
84 | Cc1ccc(S(=O)(=O)NC(=O)c2ccc(Cl)nc2Cl)cc1 | > 10 | > 10
85 | COc1cccc(/C=C(\c2nc3ccccc3[nH]2)c2nc3ccccc3s2)c1 | > 10 | > 10
86 | Cn1c(N)c(N2CCNCC2)c(=O)n(C)c1=O | > 10 | > 10
87 | Cc1cc(C)c2c(c1)C(=O)/C(=C/c1ccc(N(C)CCC#N)cc1)CC2 | > 10 | > 10
88 | O=C(O)CSc1nc2ccccc2c(=O)n1-c1ccccc1Cl | > 10 | > 10
89 | COc1ccc(C)cc1-n1c(=O)c2ccccc2n2c(SC)nnc12 | > 10 | > 10
90 | O=C1N=C(NC2CCCC2)S/C1=C\c1ccc(Cl)cc1 | > 10 | > 10
91 | CCNC(=O)NC(=O)C(c1ccccc1)n1nc(C(=O)O)c2ccccc2c1=O (configuration not stated) | > 10 | > 10
